Laboratory results taken from the supplement of paper PMC10307832.

How the values were obtained:
Assay in all cases: relative viability (nuclei count vs DMSO), 5 days (fraction); higher = more cells survive
[1] = compound: C1/C(=C\C2=CC=CS2)/C(=O)/C(=C/C3=CC=CS3)/C1 + C[C@@H](Oc1cc(-c2cnn(C3CCNCC3)c2)cnc1N)c1c(Cl)ccc(F)c1Cl [Crizotinib] (partner 1 µM)
Method in brief: (§1)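 Lung cancer cell lines in 1536-well plates got either a single drug or a fixed anchor-drug dose together with five library-drug doses (not always all listed) in √10 steps, by pin tool, on the day after seeding. Nuclei were counted after 5 days, and relative viability is the treated-to-vehicle ratio of nuclei counts. Values are medians of duplicate plates.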

[2] = compound: C1/C(=C\C2=CC=CS2)/C(=O)/C(=C/C3=CC=CS3)/C1 + O=C(CCCCCCC(=O)Nc1ccccc1)NO [Vorinostat] (partner 1 µM)
Method in brief: as §1

[3] = compound: C[C@]12O[C@H](C[C@]1(O)CO)n1c3ccccc3c3c4c(c5c6ccccc6n2c5c31)CNC4=O [Lestaurtinib] + CC1(C)CCC(c2ccc(Cl)cc2)=C(CN2CCN(c3ccc(C(=O)NS(=O)(=O)c4ccc(N[C@H](CCN5CCOCC5)CSc5ccccc5)c(S(=O)(=O)C(F)(F)F)c4)cc3)CC2)C1 [Navitoclax] (partner 0.5 µM)
Method in brief: as §1

[4] = compound: C[C@]12O[C@H](C[C@]1(O)CO)n1c3ccccc3c3c4c(c5c6ccccc6n2c5c31)CNC4=O [Lestaurtinib] + O=C(c1cc(Cc2n[nH]c(=O)c3ccccc23)ccc1F)N1CCN(C(=O)C2CC2)CC1 [Olaparib] (partner 8 µM)
Method in brief: as §1

| Cell Line | relative viability ([1]; first compound 0.2 µM) | relative viability ([1]; first compound 0.6325 µM) | relative viability ([1]; first compound 2 µM) | relative viability ([1]; first compound 6.325 µM) | relative viability ([1]; first compound 20 µM) | relative viability ([2]; first compound 0.2 µM) | relative viability ([2]; first compound 0.6325 µM) | relative viability ([2]; first compound 2 µM) | relative viability ([2]; first compound 6.325 µM) | relative viability ([2]; first compound 20 µM) | relative viability ([3]; first compound 0.005 µM) | relative viability ([3]; first compound 0.01581 µM) | relative viability ([3]; first compound 0.05 µM) | relative viability ([3]; first compound 0.1581 µM) | relative viability ([3]; first compound 0.5 µM) | relative viability ([4]; first compound 0.005 µM) | relative viability ([4]; first compound 0.01581 µM) | relative viability ([4]; first compound 0.05 µM) | relative viability ([4]; first compound 0.1581 µM) | relative viability ([4]; first compound 0.5 µM) |
| --- | --- | --- | --- | --- | --- | --- | --- | --- | --- | --- | --- | --- | --- | --- | --- | --- | --- | --- | --- | --- |
| SK-LU-1 | 1.12 | 1.03 | 0.925 | 0.763 | 0.923 | 0.849 | 0.764 | 0.75 | 0.677 | 0.774 | 0.822 | 0.736 | 0.509 | 0.292 | 0.173 | 0.431 | 0.397 | 0.382 | 0.362 | 0.218 |
| NCI-H2085 | 0.789 | 0.935 | 0.83 | 0.856 | 0.952 | 0.739 | 0.808 | 0.857 | 0.7 | 0.715 | 1.15 | 1.36 | 1.1 | 1.27 | 0.979 | 0.804 | 0.755 | 0.835 | 0.935 | 0.84 |
| NCI-H460 | 0.813 | 1.17 | 0.958 | – | 0.835 | 0.859 | 0.724 | 0.783 | 0.398 | 0.635 | 1.37 | 1.01 | 0.694 | 0.894 | 0.544 | 0.511 | 0.532 | 0.449 | 0.516 | 0.429 |
| Calu-6 | 0.845 | 0.873 | 0.846 | 0.764 | 0.772 | – | – | – | – | – | 1.01 | 0.797 | 0.506 | 0.468 | 0.106 | 0.572 | – | 0.457 | 0.388 | 0.252 |
| RERF-LC-KJ | 0.794 | 0.843 | 0.832 | 0.763 | 0.754 | 0.735 | 0.723 | 0.713 | 0.645 | 0.675 | 1.24 | 1.1 | 0.792 | 0.618 | 0.641 | 1.13 | 1.07 | 0.961 | 0.952 | 0.399 |
| LCLC-103H | 1.09 | 1.03 | 1.08 | 0.906 | 1.03 | 0.805 | 0.842 | 0.859 | 0.698 | 0.765 | – | – | – | – | – | 0.872 | 0.845 | 0.719 | 0.655 | 0.529 |
| HCC-15 | 0.833 | 0.881 | 0.771 | 0.779 | 0.79 | 0.876 | 0.846 | 0.842 | 0.772 | 0.743 | 0.786 | 0.883 | 0.668 | 0.653 | 0.467 | 0.863 | 0.756 | 0.782 | 0.777 | 0.167 |
| H3255 | 0.847 | 1.06 | 0.793 | 0.8 | 0.845 | 0.756 | 0.856 | 0.427 | 0.758 | 0.875 | 0.44 | 0.437 | 0.327 | 0.279 | 0.182 | 0.563 | 0.535 | 0.54 | 0.525 | 0.397 |
| NCI-H1792 | 0.991 | 0.998 | 1.07 | – | 1.06 | – | – | – | – | – | 0.322 | 0.86 | 0.428 | 0.23 | 0.166 | 0.593 | 0.495 | 0.434 | 0.267 | 0.164 |
